Measured values published in US20060166941A1, “Treatment and/or prevention of non-viral epithelial damage” (Epistem Limited, priority 2003, published 2006).
“And” between values parts separate entries of the source, which are not always exact repeats. Equal entries are not always repeated. Structures can show the parent of a compound that is named as a salt.

Key:
Design in all cases: species or system mice
[1] = system: clonogenic stem cells of the digestive epithelium; assay: In vivo protection of intestinal epithelium clonogenic stem cells, radiation damage, independent experiment 1 (regenerating crypts); settings: for corrected crypts/circumference / no. crypts/circumference: day 4; for Protection Factor: 13Gy, corrected crypts treated / vehicle
Excerpt: In Vivo Protection of Intestinal Epithelium Clonogenic Stem Cells—Radiation Damage Independent Experiment 1.
(§1) The ability of foscarnet (phosphonoformic acid trisodium salt hexahydrate) to prevent radiological damage to clonogenic stem cells of the digestive epithelium was illustrated by the following experiment.
(§2) The model of radiological insult used was treatment with 13 Gy X-ray whole body radiation at a dose rate of 0.7 Gy/minute. Such radiation treatment provides a model of radiotherapy administered to patients undergoing treatment for cancer.
Four experimental groups, each of six mice, were established as set out below:
(§3) Group 1: Received intra-peritoneal injection, containing 50 mg foscarnet/kilogram bodyweight, in sterile water, one hour prior to radiation treatment. Received one further identical injection on each of the three days following radiation treatment.
Group 2: Received intra-peritoneal injection, containing 100 mg foscarnet/kilogram bodyweight, in sterile water, one hour prior to radiation treatment. Received one further identical injection on each of the three days following radiation treatment.
(§4) Group 3: Vehicle control. Received intra-peritoneal injection, of sterile water, one hour prior to radiation treatment. Received one further identical injection on each of the three days following radiation treatment.
Group 4: Untreated controls. Received neither injections nor exposure to radiation.
(§5) On the fourth day after treatment the animals of each group were killed, and intestinal tissue harvested for histological analysis. Tissue sections were stained with haemotoxylin and eosin, and were analysed for the presence of regenerating intestinal crypts. Regenerating intestinal crypts are derived from one or more surviving clonogenic stem cells, whereas sterilised crypts (containing no surviving stem cells) disappear within two days of irradiation. The number of regenerating crypts per intestinal circumference was counted, and the mean crypt width measured. Scores for each animal were then corrected to account for the probability of preferentially scoring larger crypts according to the following equation: [formula]
(§6) For each treatment a Protection Factor was calculated using the following equation: corrected crypts/circumference treated corrected crypts/circumference untreated (vehicle)

[2] = system: oral mucosa; assay: In vivo protection of oral mucosa following radiation damage (20 Gy head only), ventral tongue cellularity; settings: 50 mg/kg 1 hr prior to 20 Gy (head only) and once a day until sampling; versus vehicle
Excerpt: In Vivo Protection of Oral Mucosa Following Radiation Damage. The ability of foscarnet (phosphonoformic acid trisodium salt hexahydrate) to prevent radiological damage to oral mucosa was illustrated by the following experiment. The model of cytotoxic insult used was treatment with 20 Gy X-ray radiation (head only) at a dose rate of 0.7 Gy/minute. Such radiation treatment provides a model of radiotherapy administered to patients undergoing treatment for cancer Experimental groups, each of four mice, were established as set out below: Group 1: Received intra-peritoneal injection, containing 50 mg foscarnet/kilogram bodyweight, in sterile water, one hour prior to radiation. Received one further identical injection on each of the two days following radiation. On the third day after radiation the animals were killed, and oral tissue harvested for analysis. […] Using a Zeiss AxioHOME the number of bromodeoxyuridine labelled and unlabelled cells were assessed in both the basal and suprabasal layers of the ventral surface of the tongue. The area from the basal layer to the stratum corneum stratum granulosum interface was measured along with the length of the basal layer. […] From these measurements the damage that the radiation had caused to the tongue could be assessed as overall cellularity of the tongue or the total number of cells/unit area (mm^2). […]

[3] = system: clonogenic stem cells of the digestive epithelium; assay: In vivo protection of intestinal epithelium clonogenic stem cells, radiation damage, independent experiment 2; settings: for corrected crypts/circumference / no. crypts/circumference: day 4; for Protection Factor: 13Gy, corrected crypts treated / vehicle
Excerpt: In Vivo Protection of Intestinal Epithelium Clonogenic Stem Cells—Radiation Damage Independent Experiment 2.
as §1, §2
Three experimental groups, each of six mice, were established as set out below:
as §3
Group 2: Received intra-peritoneal injection, containing 25 mg foscarnet/kilogram bodyweight, in sterile water, one hour prior to radiation treatment. Received one further identical injection on each of the three days following radiation treatment.
as §4, §5, §6

[4] = 13Gy plus 50 mg foscarnet -1 hr, 1, 2, 3 day, group Average
[5] = 13Gy plus 50 mg foscarnet -1 hr, 1, 2, 3 day, individual mice
[6] = 13Gy plus 100 mg foscarnet -1 hr, 1, 2, 3 day, group Average
[7] = 13Gy plus 100 mg foscarnet -1 hr, 1, 2, 3 day, individual mice
[8] = 50 mg foscarnet -1 hr, 1, 2, 3 day
[9] = 13Gy plus 25 mg foscarnet -1 hr, 1, 2, 3 day, group Average
[10] = 13Gy plus 25 mg foscarnet -1 hr, 1, 2, 3 day, individual mice

`O=C(O)P(=O)(O)O` [foscarnet, phosphonoformic acid trisodium salt hexahydrate] was tested, and the corrected crypts/circumference [1, 4] was 3.8, the no. crypts/circumference [1, 4] was 6.8 and the corrected crypts/circumference [1, 5] was 2.6 and 6.1 and 3.6 and 4.3 and 2.5. The no. crypts/circumference [1, 5] was 4.8 and 10.7 and 6.6 and 7.2 and 4.5, the corrected crypts/circumference [1, 6] was 3.2 and the no. crypts/circumference [1, 6] was 5.6. The corrected crypts/circumference [1, 7] was 3.0 and 3.6 and 2.5 and 2.1 and 4.8, the no. crypts/circumference [1, 7] was 5.5 and 6.4 and 4.3 and 3.8 and 8.0 and the “Protection Factor” value [1, 8] was 1.52. For the same compound, the “more crypts compared to mice treated with vehicle alone” value ([1]; 13 Gy, 50 mg/kg foscarnet) was ~50%, the “more small intestinal clonogenic stem cells survived” value ([1]; 13 Gy, 50 mg/kg foscarnet) was “at least 50%” and the “Protection Factor” value ([1]; 100 mg foscarnet -1 hr, 1, 2, 3 day) was 1.28. For the same compound, the “numbers of intestinal crypts after exposure to radiation” value ([1]; Groups 1 and 2 (50 mg foscarnet and 100 mg foscarnet), 13 Gy) was “increased numbers of intestinal crypts”, the “average number of cells/unit area, ventral tongue epithelium (FIG. 7)” value [2] was “increased” and the “overall cellularity of the ventral tongue over time (FIG. 6)” value [2] was “increased”. The corrected crypts/circumference [3, 9] was 2.8, the no. crypts/circumference [3, 9] was 5.7 and the corrected crypts/circumference [3, 10] was 1.4 and 2.0 and 2.7 and 4.4 and 3.0 and 3.3. The no. crypts/circumference [3, 10] was 2.6 and 4.1 and 5.4 and 9.4 and 6.3 and 6.4, the corrected crypts/circumference [3, 4] was 4.7 and the no. crypts/circumference [3, 4] was 8.8. For the same compound, the corrected crypts/circumference [3, 5] was 6.5 and 4.4 and 2.7 and 1.9 and 5.4 and 7.5, the no. crypts/circumference [3, 5] was 11.8 and 8.7 and 5.2 and 4.1 and 9.6 and 13.2 and the “Protection Factor” value ([3]; 25 mg foscarnet -1 hr, 1, 2, 3 day) was 1.12. The “Protection Factor” value [3, 8] was 1.88, the “more crypts compared to mice treated with vehicle alone” value ([3]; 13 Gy, 50 mg/kg foscarnet) was ~50% and the “more small intestinal clonogenic stem cells survived” value ([3]; 13 Gy, 50 mg/kg foscarnet) was “at least 50%”. For the same compound, the “numbers of intestinal crypts after exposure to radiation” value ([3]; Groups 1 and 2 (50 mg foscarnet and 25 mg foscarnet), 13 Gy) was “increased numbers of intestinal crypts”.
